Test results published in US10273226B2, “Pyrazolyl-heteroarylamides as pesticides” (Bayer Animal Health GmbH, priority 2014, dated 2019).

Columns and labels:
Assay type in all cases: in vivo
Tetranychus urticae = Tetranychus urticae spray test, OP-resistant; settings: application rate 100 g/ha; after 6 days
Protocol: Tetranychus urticae—Spray Test, OP-Resistant
(§1) To produce an appropriate active ingredient formulation, 1 part by weight of active ingredient is dissolved using the specified parts by weight of solvent and made up with water containing an emulsifier concentration of 1000 ppm until the desired concentration is attained. To produce further test concentrations, the preparation is diluted with emulsifier-containing water.
Discs of bean leaves (Phaseolus vulgaris) infested by all stages of the greenhouse red spider mite (Tetranychus urticae) are sprayed with an active ingredient formulation of the desired concentration.
After 6 days, efficacy in % is determined. 100% means that all the spider mites have been killed; 0% means that none of the spider mites have been killed.

Boophilus microplus = Boophilus microplus injection test; settings: application rate 20 μg/animal; injection into abdomen; assessed after 7 days
Protocol: Boophilus microplus—Injection Test
(§2) Solvent: dimethyl sulphoxide
To produce an appropriate active ingredient formulation, 10 mg of active ingredient are mixed with 0.5 ml of solvent and the concentrate is diluted with solvent to the desired concentration.
1 μl of the active ingredient solution is injected into the abdomen of 5 engorged adult female cattle ticks (Boophilus microplus). The animals are transferred into dishes and kept in a climate-controlled room.
Efficacy is assessed after 7 days by laying of fertile eggs. Eggs which are not visibly fertile are stored in a climate-controlled cabinet until the larvae hatch after about 42 days. An efficacy of 100% means that none of the ticks has laid any fertile eggs; 0% means that all the eggs are fertile.

Ctenocephalides felis = Ctenocephalides felis oral test; settings: application rate 100 ppm in citrated cattle blood; after 2 days
Protocol: Ctenocephalides felis—Oral Test
as §2
For the purpose of producing an appropriate active ingredient formulation, 10 mg of active ingredient are mixed with 0.5 ml of dimethyl sulphoxide. Dilution with citrated cattle blood gives the desired concentration.
About 20 unfed adult cat fleas (Ctenocephalides felis) are placed into a chamber which is closed at the top and bottom with gauze. A metal cylinder whose bottom end is closed with parafilm is placed onto the chamber. The cylinder contains the blood/active ingredient preparation, which can be imbibed by the fleas through the parafilm membrane.
After 2 days, the kill in % is determined. 100% means that all of the fleas have been killed; 0% means that none of the fleas have been killed.

Lucilia cuprina = Lucilia cuprina test; settings: application rate 100 ppm; L1 larvae; after 2 days
Protocol: as §2
To produce an appropriate active ingredient formulation, 10 mg of active ingredient are mixed with 0.5 ml of dimethyl sulphoxide, and the concentrate is diluted with water to the desired concentration.
About 20 L1 larvae of the Australian sheep blowfly (Lucilia cuprina) are transferred into a test vessel containing minced horsemeat and the active ingredient preparation of the desired concentration.
After 2 days, the kill in % is determined. 100% means that all the larvae have been killed and 0% means that none of the larvae have been killed.

Spodoptera frugiperda = Spodoptera frugiperda spray test; settings: caterpillars, after 7 days
Protocol: Spodoptera frugiperda—Spray Test
as §1
Leaf discs of maize (Zea mays) are sprayed with an active ingredient formulation of the desired concentration and, after drying, populated with caterpillars of the armyworm (Spodoptera frugiperda).
After 7 days, efficacy in % is determined. 100% means that all the caterpillars have been killed; 0% means that no caterpillars have been killed.

Phaedon cochleariae = Phaedon cochleariae spray test; settings: application rate 100 g/ha; larvae; after 7 days
Protocol: Phaedon cochleariae—Spray Test
as §1
Discs of Chinese cabbage leaves (Brassica pekinensis) are sprayed with an active ingredient formulation of the desired concentration and, after drying, populated with larvae of the mustard beetle (Phaedon cochleariae).
After 7 days, efficacy in % is determined. 100% means that all the beetle larvae have been killed; 0% means that no beetle larvae have been killed.

Rhipicephalus sanguineus = Rhipicephalus sanguineus in vitro contact test with adult brown dog ticks; settings: after 48 h, ticks dead or moribund
Protocol: Rhipicephalus sanguineus—In Vitro Contact Tests with Adult Brown Dog Ticks
For the coating of the test tubes, 9 mg of active ingredient are first dissolved in 1 ml of acetone p.a. and then diluted to the desired concentration with acetone p.a. 250 μl of the solution are distributed homogeneously on the inner walls and base of a 25 ml test tube by turning and rocking on an orbital shaker (rocking rotation at 30 rpm for 2 h). With 900 ppm active ingredient solution and internal surface 44.7 cm^2, given homogeneous distribution, an area-based dose of 5 μg/cm^2 is achieved.
After the solvent has evaporated off, the tubes are populated with 5-10 adult dog ticks (Rhipicephalus sanguineus), sealed with a perforated plastic lid and incubated in a horizontal position in the dark at room temperature and ambient humidity. After 48 h, efficacy is determined. To this end, the ticks are knocked to the floor of the tube and incubated on a hotplate at 45-50° C. for not more than 5 min. Ticks which remain motionless on the floor or move in such an uncoordinated manner that they are unable to deliberately avoid the heat by climbing upwards are considered to be dead or moribund.
An efficacy of 100% means that all the ticks were dead or moribund. 0% efficacy means that none of the ticks had been harmed.

[1] = application rate 5 μg/cm^2 (500 g/ha)

| Structure (SMILES) | efficacy (laying of fertile eggs) (Boophilus microplus) [%] | efficacy (kill in %) (Ctenocephalides felis) [%] | efficacy (kill in %) (Lucilia cuprina) [%] | other results |
| --- | --- | --- | --- | --- |
| CC(C(=O)Nc1cc(-c2cnn(-c3c(C(F)(F)F)c(C(F)(F)C(F)(F)F)nn3C)c2)ccc1F)c1ccccc1 (racemic) [Example 1-108] | 100 |  |  | efficacy (Tetranychus urticae): 100% |
| Cn1nc(C(F)(F)C(F)(F)F)c(C(F)(F)F)c1-n1cc(-c2ccc(F)c(NC(=O)C(c3ccccc3)C3CCCC3)c2)cn1 (racemic) [Example 1-109] | 80 |  |  |  |
| CC(Oc1ccccc1)C(=O)Nc1cc(-c2cnn(-c3c(C(F)(F)F)c(C(F)(F)C(F)(F)F)nn3C)c2)ccc1F (racemic) [Example 1-123] | 100 | 90 |  |  |
| CCC(C(=O)Nc1cc(-c2cnn(-c3c(C(F)(F)F)c(C(F)(F)C(F)(F)F)nn3C)c2)ccc1F)c1ccccc1 (racemic) [Example 1-124] | 100 |  |  |  |
| Cn1nc(C(F)(F)C(F)(F)F)c(C(F)(F)F)c1-n1cc(-c2cccc(NC(=O)c3ncccc3Cl)c2)cn1 [Example 1-005] | 100 | 100 | 100 | efficacy (Spodoptera frugiperda; application rate 100 g/ha): 100%; efficacy (Phaedon cochleariae): 100% |
| CCC(=O)Nc1cccc(-c2cnn(-c3c(C(F)(F)F)c(C(F)(F)C(F)(F)F)nn3C)c2)c1 [Example 1-008] | 100 | 100 | 100 | efficacy (Rhipicephalus sanguineus; [1]): 100% |
| Cn1nc(C(F)(F)C(F)(F)F)c(C(F)(F)F)c1-n1cc(-c2cccc(NC(=O)c3ncccc3Cl)c2F)cn1 [Example 1-020] | 100 | 95 | 90 |  |
| Cn1nc(C(F)(F)C(F)(F)F)c(C(F)(F)F)c1-n1cc(-c2ccc(Cl)c(NC(=O)c3ncccc3Cl)c2)cn1 [Example 1-021] |  | 80 |  |  |
| Cn1nc(C(F)(F)C(F)(F)F)c(C(F)(F)F)c1-n1cc(-c2cccc(NC(=O)C3(Cl)CC3)c2)cn1 [Example 1-030] | 100 | 100 | 100 | efficacy (Rhipicephalus sanguineus; [1]): 80%; efficacy (Spodoptera frugiperda; application rate 500 g/ha): 100% |
| Cn1nc(C(F)(F)C(F)(F)F)c(C(F)(F)F)c1-n1cc(-c2ccc(F)c(NC(=O)c3ccc(F)c(C(F)(F)F)c3)c2)cn1 [Example 1-050] | 100 |  | 100 | efficacy (Phaedon cochleariae): 100% |
| Cn1nc(C(F)(F)C(F)(F)F)c(C(F)(F)F)c1-n1cc(-c2ccc(F)c(NC(=O)C3(C)CCCCC3)c2)cn1 [Example 1-053] |  |  |  | efficacy (Tetranychus urticae): 100% |
| Cn1nc(C(F)(F)C(F)(F)F)c(C(F)(F)F)c1-n1cc(-c2ccc(F)c(NC(=O)c3cccc(C(F)(F)F)c3)c2)cn1 [Example 1-057] | 100 | 95 | 100 | efficacy (Spodoptera frugiperda; application rate 100 g/ha): 83% |
| Cc1c(C(=O)Nc2cc(-c3cnn(-c4c(C(F)(F)F)c(C(F)(F)C(F)(F)F)nn4C)c3)ccc2F)oc2ccccc12 [Example 1-059] | 100 |  |  |  |
| COCCC(=O)Nc1cc(-c2cnn(-c3c(C(F)(F)F)c(C(F)(F)C(F)(F)F)nn3C)c2)ccc1F [Example 1-061] | 100 | 100 |  | efficacy (Rhipicephalus sanguineus; [1]): 80% |
| Cc1cc(C(F)F)n2nc(C(=O)Nc3cc(-c4cnn(-c5c(C(F)(F)F)c(C(F)(F)C(F)(F)F)nn5C)c4)ccc3F)nc2n1 [Example 1-062] | 100 | 100 | 100 |  |
| Cn1nc(C(F)(F)C(F)(F)F)c(C(F)(F)F)c1-n1cc(-c2ccc(F)c(NC(=O)c3cccc(F)c3F)c2)cn1 [Example 1-070] | 100 | 100 | 100 | efficacy (Rhipicephalus sanguineus; [1]): 80% |
| Cn1nc(C(F)(F)C(F)(F)F)c(C(F)(F)F)c1-n1cc(-c2ccc(F)c(NC(=O)c3ccccc3OC(F)(F)F)c2)cn1 [Example 1-074] | 90 |  |  |  |
| Cn1nc(C(F)(F)C(F)(F)F)c(C(F)(F)F)c1-n1cc(-c2ccc(F)c(NC(=O)CC(C)(C)C)c2)cn1 [Example 1-079] | 100 | 95 | 100 |  |
| CCOCC(C)(C)C(=O)Nc1cc(-c2cnn(-c3c(C(F)(F)F)c(C(F)(F)C(F)(F)F)nn3C)c2)ccc1F [Example 1-082] | 100 | 90 |  |  |
| Cc1ccc(C(=O)Nc2cc(-c3cnn(-c4c(C(F)(F)F)c(C(F)(F)C(F)(F)F)nn4C)c3)ccc2F)cc1C [Example 1-090] |  |  |  | efficacy (Rhipicephalus sanguineus; [1]): 100%; efficacy (Phaedon cochleariae): 100% |
| Cn1nc(C(F)(F)C(F)(F)F)c(C(F)(F)F)c1-n1cc(-c2ccc(F)c(NC(=O)CSc3ccccc3)c2)cn1 [Example 1-107] | 100 |  |  |  |
| Cc1ccc(C2(C(=O)Nc3cc(-c4cnn(-c5c(C(F)(F)F)c(C(F)(F)C(F)(F)F)nn5C)c4)ccc3F)CCCCC2)cc1 [Example 1-111] | 80 |  |  |  |
| Cc1cn(CC(=O)Nc2cc(-c3cnn(-c4c(C(F)(F)F)c(C(F)(F)C(F)(F)F)nn4C)c3)ccc2F)nc1C(F)(F)F [Example 1-112] | 95 |  |  |  |
| Cn1nc(C(F)(F)C(F)(F)F)c(C(F)(F)F)c1-n1cc(-c2ccc(F)c(NC(=O)COCc3ccccc3)c2)cn1 [Example 1-114] | 100 |  |  |  |
| Cn1nc(C(F)(F)C(F)(F)F)c(C(F)(F)F)c1-n1cc(-c2ccc(F)c(NC(=O)C3(c4ccc(Cl)cc4)CCC3)c2)cn1 [Example 1-115] | 100 | 90 | 80 |  |
| Cn1nc(C(F)(F)C(F)(F)F)c(C(F)(F)F)c1-n1cc(-c2ccc(F)c(NC(=O)Cc3cccc(C(F)(F)F)c3)c2)cn1 [Example 1-116] | 100 | 100 | 100 | efficacy (Spodoptera frugiperda; application rate 100 g/ha): 83%; efficacy (Phaedon cochleariae): 100% |
| Cn1nc(C(F)(F)C(F)(F)F)c(C(F)(F)F)c1-n1cc(-c2ccc(F)c(NC(=O)Cc3cccs3)c2)cn1 [Example 1-117] | 100 | 100 | 100 | efficacy (Rhipicephalus sanguineus; [1]): 100%; efficacy (Spodoptera frugiperda; application rate 100 g/ha): 100% |
| Cn1nc(C(F)(F)C(F)(F)F)c(C(F)(F)F)c1-n1cc(-c2ccc(F)c(NC(=O)CCc3ccccc3)c2)cn1 [Example 1-125] | 100 |  |  |  |
| Cn1nc(C(F)(F)C(F)(F)F)c(C(F)(F)F)c1-n1cc(-c2cnc(Cl)c(NC(=O)c3ncccc3Cl)c2)cn1 [Example 2-002] | 100 |  |  |  |
| COc1cc(C(=O)Nc2cc(-c3cnn(-c4c(C(F)(F)F)c(C(F)(F)C(F)(F)F)nn4C)c3)cnc2Cl)ccc1F [Example 2-007] | 100 | 100 | 100 | efficacy (Rhipicephalus sanguineus; application rate 1 μg/cm^2 (100 g/ha)): 80%; efficacy (Phaedon cochleariae): 100% |
